Like-named read-outs stand apart in the source and are kept apart here.
Experiments:
[1] = target: EeAChE (Electrophorus electricus acetylcholinesterase) (Electrophorus electricus, UniProt O42275); assay: AChE inhibition assay; type: biochemical, electric eel
hBACE 1 = hBACE 1 (Homo sapiens, UniProt P56817); assay: BACE 1 FRET inhibition assay; type: biochemical; conditions: human BACE 1
[2] = read-out: EeAChE IC50 (μM) ± SD, mean ± SD, n = 3, AChE from electric eel, Ellman assay
[3] = read-out: hBACE 1 IC50 (μM) ± SD, mean ± SD, n = 3, FRET assay
[4] = hBACE 1 IC50 (μM) ± SD, mean ± SD, n = 3, FRET assay

Chain of hBACE 1 (P56817 46-501): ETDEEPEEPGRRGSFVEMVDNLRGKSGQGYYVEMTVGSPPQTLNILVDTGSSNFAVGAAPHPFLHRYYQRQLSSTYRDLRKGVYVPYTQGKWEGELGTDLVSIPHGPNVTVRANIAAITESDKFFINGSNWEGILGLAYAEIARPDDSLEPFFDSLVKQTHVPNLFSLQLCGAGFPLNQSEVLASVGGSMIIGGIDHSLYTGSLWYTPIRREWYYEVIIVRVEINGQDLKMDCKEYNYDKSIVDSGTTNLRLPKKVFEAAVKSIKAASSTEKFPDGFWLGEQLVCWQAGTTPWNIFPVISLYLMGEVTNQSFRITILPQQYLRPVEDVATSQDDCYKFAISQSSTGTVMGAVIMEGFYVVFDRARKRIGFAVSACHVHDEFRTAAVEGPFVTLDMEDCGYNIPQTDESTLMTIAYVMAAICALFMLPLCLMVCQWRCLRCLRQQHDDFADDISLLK
Chain of EeAChE (Electrophorus electricus acetylcholinesterase) (O42275 24-633): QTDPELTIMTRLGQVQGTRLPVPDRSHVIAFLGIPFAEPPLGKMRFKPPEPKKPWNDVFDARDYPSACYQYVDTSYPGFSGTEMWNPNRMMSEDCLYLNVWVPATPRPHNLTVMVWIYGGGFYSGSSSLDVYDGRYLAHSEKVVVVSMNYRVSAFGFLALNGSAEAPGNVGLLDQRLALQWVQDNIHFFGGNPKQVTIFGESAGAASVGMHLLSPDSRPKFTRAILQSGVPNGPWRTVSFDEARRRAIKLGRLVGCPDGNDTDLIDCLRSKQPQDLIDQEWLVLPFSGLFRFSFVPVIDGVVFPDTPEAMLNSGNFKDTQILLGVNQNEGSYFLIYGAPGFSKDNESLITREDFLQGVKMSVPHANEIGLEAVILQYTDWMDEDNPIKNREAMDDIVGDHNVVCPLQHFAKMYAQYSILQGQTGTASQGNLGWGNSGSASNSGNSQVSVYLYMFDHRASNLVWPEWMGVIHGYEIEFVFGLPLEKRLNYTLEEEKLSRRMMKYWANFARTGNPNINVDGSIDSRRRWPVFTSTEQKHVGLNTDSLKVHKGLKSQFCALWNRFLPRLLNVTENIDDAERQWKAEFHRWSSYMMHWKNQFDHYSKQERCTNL

| SMILES | EeAChE PIC50 ([1]; AChE from electric eel) | IC50 [1, 2] | hBACE 1 PIC50 (hBACE 1) | IC50 (hBACE 1; [3]) | IC50 [1] | IC50 (hBACE 1; [4]) | IC50 (hBACE 1; hBACE 1 PIC50 (μM)) |
| --- | --- | --- | --- | --- | --- | --- | --- |
| [H]/N=C(/N)NN=C(/C=C/c1ccc(C(F)(F)F)cc1)c1cn(Cc2ccc(C(F)(F)F)cc2)c2ccccc12 [Compound 3a, (Z)-2-((E)-1-(1-(4-(Trifluoromethyl)benzyl)-1H-indol-3-yl)-3-(4-(trifluoromethyl)phenyl)allylidene)hydrazine-1-carboximidamide] | 4.42 µM | 38.4 ± 3.46 µM | 3.65 µM | 222.3 ± 0.49 µM |  |  |  |
| [H]/N=C(/N)NN=C(/C=C/c1ccc(C(C)(C)C)cc1)c1cn(Cc2ccc(C(C)(C)C)cc2)c2ccccc12 [Compound 3h, (Z)-2-((E)-1-(1-(4-(tert-Butyl)benzyl)-1H-indol-3-yl)-3-(4-(tert-butyl)phenyl)allylidene)hydrazine-1-carboximidamide] |  |  |  |  | 55.7 ± 3.17 µM | 179.2 ± 0.78 µM | 178 µM |
| [H]/N=C(/N)NN=C(/C=C/c1ccc(C(C)(C)C)cc1)c1cn(Cc2ccc(C(F)(F)F)cc2)c2ccccc12 [Compound 3k, (Z)-2-((E)-3-(4-(tert-Butyl)phenyl)-1-(1-(4-(trifluoromethyl)benzyl)-1H-indol-3-yl)allylidene)hydrazine-1-carboximidamide] |  |  |  |  | 207 ± 7.64 µM | 139 ± 1.98 µM | 138 µM |
| [H]/N=C(/N)NN=C(/C=C/c1ccc(C#N)cc1)c1cn(Cc2ccccc2)c2ccccc12 [Compound 1l, (Z)-2-((E)-1-(1-Benzyl-1H-indol-3-yl)-3-(4-cyanophenyl)allylidene)hydrazine-1-carboximidamide] |  |  |  |  | 60.9 ± 2.53 µM | 9.38 ± 0.5 µM | 9.33 µM |
| [H]/N=C(/N)NN=C(/C=C/c1ccccc1)c1cn(Cc2cc(C(F)(F)F)cc(C(F)(F)F)c2)c2ccccc12 [Compound 2c, (Z)-2-((E)-1-(1-(3,5-Bis(trifluoromethyl)benzyl)-1H-indol-3-yl)-3-phenylallylidene)hydrazine-1-carboximidamide] |  |  |  |  | 56.6 ± 0.98 µM | 70 ± 0.87 µM | 70.8 µM |
| [H]/N=C(/N)NN=C(/C=C/c1cccc(Br)c1)c1cn(Cc2ccccc2)c2ccccc12 [Compound 1h, (Z)-2-((E)-1-(1-Benzyl-1H-indol-3-yl)-3-(3-bromophenyl)allylidene)hydrazine-1-carboximidamide] |  |  |  |  | 66.3 ± 1.72 µM | 15.1 ± 0.74 µM | 15.1 µM |
| [H]/N=C(/N)NN=C(/C=C/c1ccc(C(C)C)cc1)c1cn(Cc2cc(F)ccc2F)c2ccccc12 [Compound 3f, (Z)-2-((E)-1-(1-(2,5-Difluorobenzyl)-1H-indol-3-yl)-3-(4-isopropylphenyl)allylidene)hydrazine-1-carboximidamide] |  |  |  |  | 167 ± 2.12 µM | 82.1 ± 2.74 µM | 81.3 µM |
| [H]/N=C(/N)NN=C(/C=C/c1ccc(C(C)(C)C)cc1)c1cn(Cc2ccc(Br)cc2)c2ccccc12 [Compound 3g, (Z)-2-((E)-1-(1-(4-Bromobenzyl)-1H-indol-3-yl)-3-(4-(tert-butyl)phenyl)allylidene)hydrazine-1-carboximidamide] |  |  |  |  | 156 ± 2.62 µM | 178.2 ± 0.92 µM | 178 µM |
| [H]/N=C(/N)NN=C(/C=C/c1ccccc1)c1cn(Cc2ccc(F)cc2F)c2ccccc12 [Compound 2a, (Z)-2-((E)-1-(1-(2,4-Difluorobenzyl)-1H-indol-3-yl)-3-phenylallylidene)hydrazine-1-carboximidamide] |  |  |  |  | 46.4 ± 1.63 µM | 200.1 ± 1.98 µM | 200 µM |
| [H]/N=C(/N)NN=C(/C=C/c1ccc(N(C)C)cc1)c1cn(Cc2ccccc2)c2ccccc12 [Compound 1g, (Z)-2-((E)-1-(1-Benzyl-1H-indol-3-yl)-3-(4-(dimethylamino)phenyl)allylidene)hydrazine-1-carboximidamide] |  |  |  |  | 78.2 ± 2.28 µM | 89 ± 2.29 µM | 89.1 µM |
| [H]/N=C(/N)NN=C(/C=C/c1ccccc1)c1cn(Cc2cc(OC)cc(OC)c2)c2ccccc12 [Compound 2g, (Z)-2-((E)-1-(1-(3,5-Dimethoxybenzyl)-1H-indol-3-yl)-3-phenylallylidene)hydrazine-1-carboximidamide] |  |  |  |  | 55.6 ± 0.72 µM | 83.4 ± 1.93 µM | 83.2 µM |
| [H]/N=C(/N)NN=C(/C=C/c1ccccc1)c1cn(Cc2ccc(F)cc2C(F)(F)F)c2ccccc12 [Compound 2d, (Z)-2-((E)-1-(1-(4-Fluoro-2-(trifluoromethyl)benzyl)-1H-indol-3-yl)-3-phenylallylidene)hydrazine-1-carboximidamide] |  |  |  |  | 169 ± 1.91 µM | 140.9 ± 1.06 µM | 141 µM |
| [H]/N=C(/N)NN=C(/C=C/c1ccc(C(C)(C)C)cc1)c1cn(Cc2ccccc2)c2ccccc12 [Compound 1b, (Z)-2-((E)-1-(1-Benzyl-1H-indol-3-yl)-3-(4-(tert-butyl)phenyl)allylidene)hydrazine-1-carboximidamide] |  |  |  |  | 42.9 ± 0.48 µM | 97.4 ± 1.36 µM | 97.7 µM |
| [H]/N=C(/N)NN=C(/C=C/c1ccccc1)c1cn(Cc2cccc(C#N)c2)c2ccccc12 [Compound 2j, (Z)-2-((E)-1-(1-(3-Cyanobenzyl)-1H-indol-3-yl)-3-phenylallylidene)hydrazine-1-carboximidamide] |  |  |  |  | 75.91 ± 0.32 µM | 178.2 ± 0.92 µM | 178 µM |
| [H]/N=C(/N)NN=C(/C=C/c1ccc(OC)c(OC)c1)c1cn(Cc2ccccc2)c2ccccc12 [Compound 1c, (Z)-2-((E)-1-(1-Benzyl-1H-indol-3-yl)-3-(3,4-dimethoxyphenyl)allylidene)hydrazine-1-carboximidamide] |  |  |  |  | 77.1 ± 1.54 µM | 59.51 ± 0.21 µM | 58.9 µM |
| [H]/N=C(/N)NN=C(/C=C/c1ccccc1)c1cn(Cc2ccc(Br)cc2F)c2ccccc12 [Compound 2i, (Z)-2-((E)-1-(1-(4-Bromo-2-fluorobenzyl)-1H-indol-3-yl)-3-phenylallylidene)hydrazine-1-carboximidamide] |  |  |  |  | 42.6 ± 1.58 µM | 185.95 ± 0.07 µM | 186 µM |
| [H]/N=C(/N)NN=C(/C=C/c1ccc(F)c(F)c1)c1cn(Cc2ccc(C(C)(C)C)cc2)c2ccccc12 [Compound 3d, (Z)-2-((E)-1-(1-(4-(tert-Butyl)benzyl)-1H-indol-3-yl)-3-(3,4-difluorophenyl)allylidene)hydrazine-1-carboximidamide] | 3.71 µM | 195.9 ± 1.73 µM | 4.11 µM | 76.9 ± 2.38 µM |  |  |  |
| [H]/N=C(/N)NN=C(/C=C/c1ccc(C)cc1)c1cn(Cc2ccccc2)c2ccccc12 [Compound 1k, (Z)-2-((E)-1-(1-Benzyl-1H-indol-3-yl)-3-(p-tolyl)allylidene)hydrazine-1-carboximidamide] |  |  |  |  | 186 ± 2.69 µM | 132.1 ± 0.28 µM | 132 µM |
| [H]/N=C(/N)NN=C(/C=C/c1ccc(F)cc1F)c1cn(Cc2ccccc2)c2ccccc12 [Compound 1m, (Z)-2-((E)-1-(1-Benzyl-1H-indol-3-yl)-3-(2,4-difluorophenyl)allylidene)hydrazine-1-carboximidamide] | 3.83 µM | 148 ± 3.11 µM | 4.89 µM | 12.8 ± 0.5 µM |  |  |  |
| [H]/N=C(/N)NN=C(/C=C/c1cccc(OCc2ccccc2)c1)c1cn(Cc2ccccc2)c2ccccc12 [Compound 1o, (Z)-2-((E)-1-(1-Benzyl-1H-indol-3-yl)-3-(3-(benzyloxy)phenyl)allylidene)hydrazine-1-carboximidamide] |  |  |  |  | 126.6 ± 0.99 µM | 12.8 ± 0.42 µM | 12.9 µM |
| [H]/N=C(/N)NN=C(/C=C/c1cccc(OC)c1OC)c1cn(Cc2ccccc2)c2ccccc12 [Compound 1p, (Z)-2-((E)-1-(1-Benzyl-1H-indol-3-yl)-3-(2,3-dimethoxyphenyl)allylidene)hydrazine-1-carboximidamide] |  |  |  |  | 48.6 ± 1.51 µM | 134 ± 1.42 µM | 135 µM |
| [H]/N=C(/N)NN=C(/C=C/c1cc(OC)ccc1OC)c1cn(Cc2ccccc2)c2ccccc12 [Compound 1j, (Z)-2-((E)-1-(1-Benzyl-1H-indol-3-yl)-3-(2,5-dimethoxyphenyl)allylidene)hydrazine-1-carboximidamide] |  |  |  |  | 61 ± 2.29 µM | 72.2 ± 1.76 µM | 72.4 µM |
| [H]/N=C(/N)NN=C(/C=C/c1ccccc1C)c1cn(Cc2ccccc2)c2ccccc12 [Compound 1r, (Z)-2-((E)-1-(1-Benzyl-1H-indol-3-yl)-3-(o-tolyl)allylidene)hydrazine-1-carboximidamide] |  |  |  |  | 46.8 ± 1.83 µM | 206 ± 3.75 µM | 204 µM |
| [H]/N=C(/N)NN=C(/C=C/c1ccccc1)c1cn(Cc2ccc(Cl)cc2)c2ccccc12 [Compound 2f, (Z)-2-((E)-1-(1-(4-Chlorobenzyl)-1H-indol-3-yl)-3-phenylallylidene)hydrazine-1-carboximidamide] |  |  |  |  | 42.8 ± 2.79 µM | 213 ± 2.26 µM | 214 µM |
| [H]/N=C(/N)NN=C(/C=C/c1ccc(F)c(F)c1)c1cn(Cc2ccccc2)c2ccccc12 [Compound 1a, (Z)-2-((E)-1-(1-Benzyl-1H-indol-3-yl)-3-(3,4-difluorophenyl)allylidene)hydrazine-1-carboximidamide] |  |  |  |  | 77.2 ± 2.24 µM | 72.11 ± 0.01 µM | 72.4 µM |
| [H]/N=C(/N)NN=C(/C=C/c1ccc(Cl)cc1)c1cn(Cc2ccccc2)c2ccccc12 [Compound 1q, (Z)-2-((E)-1-(1-Benzyl-1H-indol-3-yl)-3-(4-chlorophenyl)allylidene)hydrazine-1-carboximidamide] |  |  |  |  | 82.6 ± 1.92 µM | 16.5 ± 0.39 µM | 16.6 µM |
| [H]/N=C(/N)NN=C(/C=C/c1cccc(OC)c1)c1cn(Cc2ccccc2)c2ccccc12 [Compound 1e, (Z)-2-((E)-1-(1-Benzyl-1H-indol-3-yl)-3-(3-methoxyphenyl)allylidene)hydrazine-1-carboximidamide] |  |  |  |  | 137.8 ± 0.14 µM | 117.2 ± 0.57 µM | 117 µM |
| [H]/N=C(/N)NN=C(/C=C/c1ccc(C(C)(C)C)cc1)c1cn(Cc2ccc(-c3ccccc3)cc2)c2ccccc12 [Compound 3c, (Z)-2-((E)-1-(1-([1,1′-Biphenyl]-4-ylmethyl)-1H-indol-3-yl)-3-(4-(tert-butyl)phenyl)allylidene)hydrazine-1-carboximidamide] |  |  |  |  | 16.6 ± 1.04 µM | 201 ± 3.82 µM | 200 µM |
